Like-named read-outs stand apart in the source and are kept apart here.
Tests used:
[1] = Stability of EPL and EPLT in human plasma under different storage conditions; format: physicochemical; conditions: n = 6
Protocol: The bench-top stability was performed for each analyte in plasma was determined by three QC levels in six replicates for 8 h at ambient temperature (24 ± 2°C). […] For determination of freeze–thaw stability of the analytes, the spiked plasma samples were frozen for 24 h at -20°C and thawed unassisted at room temperature. When completely thawed, the samples were refrozen for 12–24 h at -20°C. On repeating the freeze−thaw cycle for 2 days, bioanalysis was done on the third day. For short-term stability, frozen plasma samples (-20°C) were kept at room temperature for 4 h before sample processing. Long-term stability was evaluated after storing the frozen plasma samples at -20°C for the whole duration of the study which was almost 30 days. […]

[2] = cited from earlier work; for Time of maximum plasma concentration: after oral administration of EPL
[3] = parameters: method as in ref 7 = [7]; 7 Yoon KH Kim W Park J Kim HJ Determination of enalapril in human plasma by high performance liquid chromatography-electrospray ionization mass spectrometry Bull. Korean Chem. Soc. 25 878 880 2004; conditions: after oral intake, mean value; cited from earlier work
[4] = parameters: method as in GC–MS method; conditions: single oral 20 mg EPL, 24 healthy adult subjects, mean ± SD; analyte not stated; ref GC–MS method; cited from earlier work
[5] = single oral 20 mg EPL maleate, 12 healthy volunteers; cited from earlier work
[6] = parameters: method as in ref 36 = [36]; 36 Remko M Acidity, lipophilicity, solubility, absorption, and polar surface area of some ACE inhibitors Chem. Pap. 61 133 141 2007; conditions: cited from earlier work
[7] = cited from earlier work
[8] = Autosampler stability 24 h at 24°C, QC 3 ng/ml
[9] = Autosampler stability 24 h at 24°C, QC 200 ng/ml
[10] = Autosampler stability 24 h at 24°C, QC 400 ng/ml
[11] = Bench top stability for 8 h, QC 3 ng/ml
[12] = Bench top stability for 8 h, QC 200 ng/ml
[13] = Bench top stability for 8 h, QC 400 ng/ml
[14] = Freeze and thaw stability at -20°C (3 cycles), QC 3 ng/ml
[15] = Freeze and thaw stability at -20°C (3 cycles), QC 200 ng/ml
[16] = Freeze and thaw stability at -20°C (3 cycles), QC 400 ng/ml
[17] = Long-term stability at -20.0°C for 30 days, QC 3 ng/ml
[18] = Long-term stability at -20.0°C for 30 days, QC 200 ng/ml
[19] = Long-term stability at -20.0°C for 30 days, QC 400 ng/ml

SMILES	Accuracy after storage [1, 8]	Mean concentration after storage [1, 8]	Accuracy after storage [1, 9]	Mean concentration after storage [1, 9]	Accuracy after storage [1, 10]	Mean concentration after storage [1, 10]	Mean concentration after storage [1, 11]	Accuracy after storage [1, 12]	Mean concentration after storage [1, 12]	Accuracy after storage [1, 13]	Mean concentration after storage [1, 13]	Accuracy after storage [1, 14]	Mean concentration after storage [1, 14]	Accuracy after storage [1, 15]	Mean concentration after storage [1, 15]	Accuracy after storage [1, 16]	Mean concentration after storage [1, 16]	Accuracy after storage [1, 17]	Mean concentration after storage [1, 17]	Accuracy after storage [1, 18]	other results
CCOC(=O)[C@H](CCc1ccccc1)N[C@@H](C)C(=O)N1CCC[C@H]1C(=O)O [EPL, enalapril]	92.6446%	2.7500 ng/mL	100.4675%	200.9350 ng/mL	92.6098%	384.6733 ng/mL	2.7350 ng/mL	100.3303%	200.9567 ng/mL	99.2485%	412.2483 ng/mL	91.6339%	2.7200 ng/mL	94.7244%	189.7283 ng/mL	93.5010%	388.3750 ng/mL	90.9601%	2.7000 ng/mL	98.6628%	Accuracy after storage [1, 11]: 92.1392%; Mean concentration after storage [1, 18]: 197.6167 ng/mL; Accuracy after storage [1, 19]: 94.6810%; Mean concentration after storage [1, 19]: 393.2767 ng/mL; Plasma level after 4 h ([2]; after 4 h not detected above this level): ≤ 10 ng/mL; Time of maximum plasma concentration [2]: ≤ 1 h; Dose recovered in the urine and feces as EPL or EPLT [2]: approximately 94%; Influence of food on absorption after oral administration [2]: not influenced by the presence of food; Terminal half-life [2]: approximately 2 h; Bioavailability ([2]; healthy subjects, absorbed from the GI tract): 60–70%; Tmax [3]: 0.96 ± 0.36 h; T1/2 [4]: 4.2 ± 1.6 h; Cmax [5]: 152.1 ng/mL; pK a (strongest acidic) [6]: 3.0; polar surface area [6]: 95.9
C[C@H](N[C@@H](CCc1ccccc1)C(=O)O)C(=O)N1CCC[C@H]1C(=O)O [EPLT, enalaprilat]	98.5516%	2.6650 ng/mL	93.8950%	187.7900 ng/mL	92.5255%	365.4017 ng/mL	2.8833 ng/mL	102.2798%	190.4450 ng/mL	98.0713%	387.3033 ng/mL	87.8274%	2.3750 ng/mL	95.3222%	177.4900 ng/mL	88.2284%	348.4317 ng/mL	92.3267%	2.4967 ng/mL	105.6740%	Mean concentration after storage [1, 18]: 196.7650 ng/mL; Accuracy after storage [1, 19]: 99.7772%; Mean concentration after storage [1, 19]: 394.0400 ng/mL; Half-life ([2]; EPLT after administration of EPL): 30 to 35 h; Time of maximum plasma concentration [2]: 3 to 4 h; Cmax [5]: 88.5 ng/mL; AUC0–t [7]: 401 ± 89 ng·h/mL; AUC0–∞ [7]: 420 ± 91 ng·h/mL; Cmax [7]: 47.5 ± 12.4 ng/mL; T1/2 [7]: 6.71 ± 2.22 h; Tmax [7]: 4.20 ± 1.06 h
